Measurements reported in patent US20060074243A1, “Hydroxamic acid and amide compounds and their use as protease inhibitors” (Pharmacia Corporation, priority 2002, published 2006).

How the values were obtained:
Assay in all cases: In vitro MMP inhibition analysis (fluorogenic peptide substrate cleavage), Ki
Format in all cases: biochemical
Conditions in all cases: Table 2
Human recombinant MMP-9 = target: T1, Human recombinant MMP-9 (Homo sapiens, UniProt P14780)
T1 construct: made in house; host or cells: MMP-9-transfected HT1080 cells (spent media)
How it was run: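 Recombinant MMP-9 purified from transfected HT1080 cell media, activated with APMA, trypsin or recombinant MMP-3, assayed in Tris buffer pH 7.5 with CaCl2 and 4 μM fluorogenic MCA/Dpa peptide, 1 h at room temperature (ex 330/em 420 nm). Ki from Morrison-equation regression of velocity; substrate at or below Km, uncorrected.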

Human recombinant MMP-13 = target: T2, Human recombinant MMP-13 (Homo sapiens, UniProt P45452)
T2 construct: made in house; host or cells: baculovirus / insect cells
How it was run: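 Baculovirus-expressed full-length MMP-13 proenzyme was purified on heparin-agarose and zinc-chelate columns, then APMA-activated. It cleaved 4 μM MCA/Dpa fluorogenic peptide in 100 mM Tris-HCl, 100 mM NaCl, 10 mM CaCl2, 0.05% Brij-23, pH 7.5, for 1 h at room temperature (ex 330/em 420 nm). Ki came from Morrison-equation fits with substrate ≤Km, uncorrected.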

Human recombinant MMP-1 = target: T3, Human recombinant MMP-1 (Homo sapiens, UniProt P03956)
T3 construct: made in house; host or cells: MMP-1-transfected HT-1080 cells (spent media)
T3 sequence (P03956 100-469): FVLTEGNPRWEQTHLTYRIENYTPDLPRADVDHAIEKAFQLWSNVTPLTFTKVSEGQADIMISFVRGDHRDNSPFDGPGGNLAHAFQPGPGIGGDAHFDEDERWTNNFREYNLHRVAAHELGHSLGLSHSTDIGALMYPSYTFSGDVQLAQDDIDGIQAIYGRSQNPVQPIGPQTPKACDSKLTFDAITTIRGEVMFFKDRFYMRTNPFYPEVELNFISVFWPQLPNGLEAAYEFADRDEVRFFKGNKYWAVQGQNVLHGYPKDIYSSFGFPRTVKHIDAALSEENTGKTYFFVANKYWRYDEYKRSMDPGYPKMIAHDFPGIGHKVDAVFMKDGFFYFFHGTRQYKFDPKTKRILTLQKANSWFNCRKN
How it was run: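 APMA- or trypsin-activated recombinant human MMP-1 (purified from transfected HT-1080 medium) with 4 μM MCA/Dpa quenched fluorogenic peptide, 1 h at room temperature in Tris/NaCl/CaCl2 buffer pH 7.5; fluorescence ex 330/em 420 nm. Ki from Morrison-equation fit of rates, substrate at or below Km, uncorrected.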

T1 sequence (P14780 107-707 limits assumed): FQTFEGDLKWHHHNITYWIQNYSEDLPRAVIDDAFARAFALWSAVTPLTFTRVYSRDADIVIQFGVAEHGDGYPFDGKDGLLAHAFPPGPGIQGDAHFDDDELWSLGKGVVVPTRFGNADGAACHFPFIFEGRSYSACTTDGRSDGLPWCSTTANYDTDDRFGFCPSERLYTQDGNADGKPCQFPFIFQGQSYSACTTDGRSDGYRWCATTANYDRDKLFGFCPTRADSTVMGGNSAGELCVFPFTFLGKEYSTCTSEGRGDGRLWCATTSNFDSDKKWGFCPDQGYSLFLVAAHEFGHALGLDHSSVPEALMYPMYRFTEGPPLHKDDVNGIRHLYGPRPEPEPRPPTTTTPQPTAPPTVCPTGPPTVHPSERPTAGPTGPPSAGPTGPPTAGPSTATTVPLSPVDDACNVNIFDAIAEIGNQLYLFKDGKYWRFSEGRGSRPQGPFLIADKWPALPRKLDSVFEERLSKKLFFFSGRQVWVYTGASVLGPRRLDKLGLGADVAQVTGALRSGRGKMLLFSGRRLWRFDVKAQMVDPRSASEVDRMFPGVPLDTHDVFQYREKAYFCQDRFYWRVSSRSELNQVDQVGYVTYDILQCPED

**Q.** What does the source list for O=C(NO)C1(S(=O)(=O)c2ccc(-c3cnccn3)cc2)CCOCC1 [Example 71]?
**A.** Ki (Human recombinant MMP-9): 42.8 nM; Ki (Human recombinant MMP-13): 1.73 nM; Ki (Human recombinant MMP-1): 2.96 µM

**Q.** How did the Ki (Human recombinant MMP-9) turn out when COCCN1CCC(C(=O)NO)(S(=O)(=O)c2ccc(-c3ccc(OCCN4CCCC4)cc3)cc2)CC1 [Example 72] was run?
**A.** The Ki was 12.9 nM.

**Q.** What about the Ki (Human recombinant MMP-13) of the same compound?
**A.** The Ki was 2.25 nM.

**Q.** What about the Ki (Human recombinant MMP-1) of the same compound?
**A.** Its Ki is > 10 µM.

**Q.** Which Ki (Human recombinant MMP-9) does the source give for O=C(NO)C1(S(=O)(=O)c2ccc(-c3ccc(CCO)cc3)cc2)CCOCC1 [Example 98] here?
**A.** Its Ki is 3.1 nM.

**Q.** And the Ki (Human recombinant MMP-13)?
**A.** The Ki was 0.147 nM.

**Q.** And the Ki (Human recombinant MMP-1)?
**A.** Its Ki is 0.99 µM.

**Q.** Which results are given for CC(C)CCc1ccc(-c2ccc(S(=O)(=O)C3(C(=O)NO)CCOCC3)cc2)nc1 [Example 99]?
**A.** Ki (Human recombinant MMP-9): 0.211 nM; Ki (Human recombinant MMP-13): 0.052 nM; Ki (Human recombinant MMP-1): 3.08 µM

**Q.** Which Ki (Human recombinant MMP-9) does the source give for COC(C)CCOc1ccc(-c2ccc(S(=O)(=O)C3(C(=O)NO)CCOCC3)cc2)cc1C(F)(F)F (stereo not drawn) [Example 100] here?
**A.** The Ki was 849 nM.

**Q.** What about the Ki (Human recombinant MMP-13) of the same compound?
**A.** The Ki was 9.4 nM.

**Q.** What about the Ki (Human recombinant MMP-1) of the same compound?
**A.** The Ki was > 10 µM.

**Q.** For CCCCCc1ccc(-c2ccc(S(=O)(=O)C3(C(=O)NO)CCOCC3)cc2)c(F)c1 [Example 101], which Ki (Human recombinant MMP-9) is on record?
**A.** The Ki was 3.05 nM.

**Q.** What about the Ki (Human recombinant MMP-13) of the same compound?
**A.** The Ki was 0.4 nM.

**Q.** And the Ki (Human recombinant MMP-1)?
**A.** Its Ki is 9.03 µM.

**Q.** Which results are given for COc1ccc(-c2ccc(S(=O)(=O)C3(C(=O)NO)CCOCC3)cc2)cc1F [Example 102]?
**A.** Ki (Human recombinant MMP-9): 1.01 nM; Ki (Human recombinant MMP-13): 0.075 nM; Ki (Human recombinant MMP-1): 0.669 µM

**Q.** Which Ki (Human recombinant MMP-9) does the source give for CC(C)Cc1ccc(-c2ccc(S(=O)(=O)C3(C(=O)NO)CCOCC3)cc2)nc1 [Example 103] here?
**A.** The Ki was 1.38 nM.

**Q.** What about the Ki (Human recombinant MMP-13) of the same compound?
**A.** The Ki was 0.117 nM.

**Q.** What about the Ki (Human recombinant MMP-1) of the same compound?
**A.** Its Ki is 2.32 µM.

**Q.** Which results are given for O=C(NO)C1(S(=O)(=O)c2ccc(-c3ccc(-c4ccccc4)cc3)cc2)CCOCC1 [Example 104]?
**A.** Ki (Human recombinant MMP-9): 0.074 nM; Ki (Human recombinant MMP-13): 0.032 nM; Ki (Human recombinant MMP-1): 6.91 µM

**Q.** CCCCc1nc(-c2ccc(S(=O)(=O)C3(C(=O)NO)CCOCC3)cc2)no1 [Example 105] was tested. Which Ki (Human recombinant MMP-9) did it give?
**A.** The Ki was 2.15 nM.

**Q.** And the Ki (Human recombinant MMP-13)?
**A.** The Ki was 3.67 nM.

**Q.** And the Ki (Human recombinant MMP-1)?
**A.** Its Ki is > 10 µM.

**Q.** CC(C)CCOc1ccc(-c2ccc(S(=O)(=O)C3(C(=O)NO)CCOCC3)cc2)cc1 [Example 108] was tested. Which Ki (Human recombinant MMP-9) did it give?
**A.** Its Ki is 2.29 nM.

**Q.** What about the Ki (Human recombinant MMP-13) of the same compound?
**A.** Its Ki is 0.199 nM.

**Q.** And the Ki (Human recombinant MMP-1)?
**A.** Its Ki is 2.12 µM.

**Q.** Which Ki (Human recombinant MMP-9) does the source give for CCN1CCC(C(=O)NO)(S(=O)(=O)c2ccc(-c3ccc(OCCOC)c(F)c3)cc2)CC1 [Example 110] here?
**A.** Its Ki is 11.2 nM.

**Q.** What about the Ki (Human recombinant MMP-13) of the same compound?
**A.** Its Ki is 0.144 nM.

**Q.** What about the Ki (Human recombinant MMP-1) of the same compound?
**A.** Its Ki is > 10 µM.

**Q.** CCN1CCC(C(=O)NO)(S(=O)(=O)c2ccc(-c3ccc(OCCOC)cc3)cc2)CC1 [Example 111] was tested. Which Ki (Human recombinant MMP-9) did it give?
**A.** Its Ki is 3.3 nM.

**Q.** What about the Ki (Human recombinant MMP-13) of the same compound?
**A.** The Ki was 0.066 nM.

**Q.** And the Ki (Human recombinant MMP-1)?
**A.** The Ki was 7.36 µM.

**Q.** How did the Ki (Human recombinant MMP-9) turn out when COCCOc1ccc(-c2ccc(S(=O)(=O)C3(C(=O)NO)CCN(C4CC4)CC3)cc2)cc1F [Example 112] was run?
**A.** Its Ki is 2.21 nM.

**Q.** What about the Ki (Human recombinant MMP-13) of the same compound?
**A.** Its Ki is 0.058 nM.

**Q.** And the Ki (Human recombinant MMP-1)?
**A.** Its Ki is 8.58 µM.

**Q.** COCCOc1ccc(-c2ccc(S(=O)(=O)C3(C(=O)NO)CCN(C4CC4)CC3)cc2)cc1 [Example 113] was tested. Which Ki (Human recombinant MMP-9) did it give?
**A.** Its Ki is 0.732 nM.

**Q.** What about the Ki (Human recombinant MMP-13) of the same compound?
**A.** Its Ki is 0.031 nM.

**Q.** And the Ki (Human recombinant MMP-1)?
**A.** The Ki was 2.91 µM.

**Q.** With COCCOc1ccc(-c2ccc(S(=O)(=O)C3(C(=O)NO)CCN(CCOC)CC3)cc2)cc1F [Example 114] as the compound, how does the Ki (Human recombinant MMP-9) read?
**A.** Its Ki is 2.77 nM.

**Q.** And the Ki (Human recombinant MMP-13)?
**A.** The Ki was 0.042 nM.

**Q.** What about the Ki (Human recombinant MMP-1) of the same compound?
**A.** Its Ki is 6.55 µM.

**Q.** COCCOc1ccc(-c2ccc(S(=O)(=O)C3(C(=O)NO)CCN(CCOC)CC3)cc2)cc1 [Example 115] was tested. Which Ki (Human recombinant MMP-9) did it give?
**A.** The Ki was 1.22 nM.

**Q.** What about the Ki (Human recombinant MMP-13) of the same compound?
**A.** Its Ki is 0.025 nM.

**Q.** And the Ki (Human recombinant MMP-1)?
**A.** The Ki was 3.37 µM.

**Q.** Which Ki (Human recombinant MMP-9) does the source give for CCOCCOc1ccc(-c2ccc(S(=O)(=O)C3(C(=O)NO)CCN(CC)CC3)cc2)cc1 [Example 116] here?
**A.** The Ki was 9.39 nM.

**Q.** What about the Ki (Human recombinant MMP-13) of the same compound?
**A.** Its Ki is 0.05 nM.

**Q.** What about the Ki (Human recombinant MMP-1) of the same compound?
**A.** Its Ki is 8.94 µM.

**Q.** CCOCCOc1ccc(-c2ccc(S(=O)(=O)C3(C(=O)NO)CCN(CCOC)CC3)cc2)cc1 [Example 117] was tested. Which Ki (Human recombinant MMP-9) did it give?
**A.** The Ki was 3.93 nM.

**Q.** What about the Ki (Human recombinant MMP-13) of the same compound?
**A.** The Ki was 0.037 nM.

**Q.** And the Ki (Human recombinant MMP-1)?
**A.** Its Ki is 4.9 µM.
